According to patent US8778340B2, “Anti-angiogenesis therapy for the treatment of ovarian cancer” (priority 2010, dated 2014):

Legend:
[1] = system: newly diagnosed high risk FIGO stage I-IIa and stage IIb-IV epithelial ovarian, fallopian tube or primary peritoneal cancer; assay: ICON7 phase III randomized two-arm trial of adding bevacizumab to carboplatin and paclitaxel (Example 2); assay type: in vivo, human; settings: for PFS hazard ratio (HR) (95% CI): CPB7.5+ versus CP, Log-Rank Test p 0.0010
From the text: Results are presented from a phase III randomized study (ICON7) to evaluate the safety and efficacy of adding bevacizumab to standard chemotherapy with carboplatin and paclitaxel. The primary endpoint was to determine whether the addition of bevacizumab to standard chemotherapy improves progression free survival (PFS) when compared to standard chemotherapy alone in women with newly diagnosed, histologically confirmed, high risk International Federation of Gynaecology and Obstetrics (FIGO) stage I and IIa (Grade 3 or clear cell carcinoma only) and FIGO stage IIb-IV (all grades and all histological types) epithelial ovarian, fallopian tube or primary peritoneal cancer, who have undergone initial surgery (either debulking cytoreductive surgery or a biopsy if the patient has FIGO stage IV disease) and who would not be considered for cytoreductive surgery prior to disease progression. Secondary endpoints included overall survival (OS), response rate, duration of response, biological progression free interval (defined by increasing CA 125 or PFIBIO), safety and quality of life. ICON7 was a 2-arm randomized clinical trial comparing standard therapy (carboplatin and paclitaxel) with one investigational arm incorporating bevacizumab in combination with paclitaxel and carboplatin (see FIG. 8). A total of 1528 eligible women participated in the trial.
ICON7 included patients with newly diagnosed, histologically confirmed, high risk FIGO stage I and IIa (Grade 3 or clear cell carcinoma only) and FIGO stage IIb-IV (all grades and all histological types) epithelial ovarian, fallopian tube or primary peritoneal cancer, who have undergone initial surgery (either debulking cytoreductive surgery or a biopsy if the patient has FIGO stage IV disease) and who will not be considered for cytoreductive surgery prior to disease progression. Patients with measurable and non-measurable disease are eligible. Patients were considered eligible for enrollment in this trial if they fulfilled all the inclusion criteria and none of the exclusion criteria as described below:
Tumor assessments, either by CT or MRI scan, with measurements using the RECIST criteria, were performed after three and six cycles of chemotherapy, and at around nine months and 12 months in the first year, or after cycle 12 and cycle 18 of treatment for patients on the research arm. In the second and third year of the trial tumour assessments were repeated every six months and thereafter as clinically indicated. These scans were performed irrespective of whether the patient has been optimally or sub-optimally debulked, and irrespective of whether there is measurable disease, or not, on the baseline scan.
Patients were clinically assessed and CA 125 measured at the start of every chemotherapy cycle and then six weekly during the first year of the trial. In the second and third year of the trial patients were assessed and CA 125 measured every three months. In the fourth and fifth year patients were clinically assessed and CA 125 measured every six months. Thereafter assessments were yearly. Progression based on CA 125 criteria alone were verified with a CT scan. If this was negative then it was repeated at the time of suspected clinical progression.
Regular physical examination and routine blood tests were performed during treatment to monitor patient safety. Quality of life (QoL) were assessed using the EORTC QLQ C-30+OV-28 and EQ-5D questionnaires at the start of every chemotherapy cycle, every six weeks until the end of the first year and then every three months until treatment for progression commenced, or to the end of year two. An additional QoL form was completed by all patients still alive three years after randomisation. Adverse events and medical resource use were documented during the study treatment and follow-up period.

[2] = system: platinum-sensitive recurrent epithelial ovarian, primary peritoneal, or fallopian tube carcinoma; assay: OCEANS phase III placebo-controlled trial of carboplatin and gemcitabine plus bevacizumab (Example 3); assay type: in vivo, human
Description: This example describes a placebo-controlled, randomized, multicenter Phase III study evaluating the efficacy and safety of bevacizumab (15 mg/kg, Day 1, every 21 days), administered in combination with carboplatin (area under the curve [AUC] 4, Day 1, every 21 days) with gemcitabine (1000 mg/m2, Day 1 and Day 8, every 21 days) in women with platinum sensitive recurrent epithelial ovarian, primary peritoneal, or fallopian tube carcinoma. About 480 patients were enrolled over a period of approximately 2.5 years. Patients were randomized in either carboplatin and gemcitabine with placebo versus carboplatin and gemcitabine with bevacizumab. […]
This phase III study of bevacizumab plus chemotherapy in women with ovarian cancer met its primary endpoint. […] PFS is defined as the time from randomization to disease progression as determined by the investigator or death due to any cause, whichever occurs first. The primary endpoint of PFS was assessed by the study investigators. Measurable disease was investigator assessed using modified RECIST (Therasse et al. 2000), e.g., every 9 weeks throughout the course of the study. […]

[3] = system: newly diagnosed, previously untreated, stage III or IV epithelial ovarian, primary peritoneal or fallopian tube cancer; assay: Phase III trial of carboplatin and paclitaxel plus placebo versus plus concurrent bevacizumab versus plus concurrent and extended bevacizumab (Example 1, GOG 0218); assay type: in vivo, human; settings: preliminary assessment of safety
From the text: Primary Objectives include to determine if the addition of 5 concurrent cycles of bevacizumab to 6 cycles of standard therapy (carboplatin and paclitaxel) [Arm II] increases the duration of progression-free survival (PFS) when compared to 6 cycles of standard therapy alone [Arm I] in women with newly diagnosed stage III (with any gross residual disease) and stage IV, epithelial ovarian, peritoneal primary or fallopian tube cancer; and, to determine if the addition of 5 concurrent cycles of bevacizumab plus extended bevacizumab for 16 cycles beyond the 6 cycles of standard therapy (carboplatin and paclitaxel) [Arm III] increases progression-free survival when compared to 6 cycles of standard therapy [Arm I] in women with newly diagnosed stage III (with any gross residual disease) and stage IV, epithelial ovarian, peritoneal primary or fallopian tube cancer.
In this study two experimental arms were selected to compare with standard cytotoxic chemotherapy with paclitaxel and carboplatin: one incorporating 5 cycles of bevacizumab (concurrent bevacizumab) and the other with bevacizumab for an additional 16 cycles after completion of chemotherapy with paclitaxel and carboplatin (extended bevacizumab). Calvert Formula for Carboplatin (AUC) Dosing: Total dose(mg)=target AUC(in mg/mL/minute)*[GFR(in mL/minute)+25]. […]

[4] = system: persistent or recurrent epithelial ovarian cancer or primary peritoneal cancer; settings: 15 mg/kg every 21 days, cited from earlier work
[5] = system: platinum resistant ovarian cancer or primary peritoneal serous cancer; settings: same dose and schedule as GOG 170-D; 44 patients; cited from earlier work

With “CPB7.5+: ICON7 chemotherapy plus bevacizumab arm (Arm B), bevacizumab continued as maintenance for a total duration of 12 months” the “PFS hazard ratio (HR) (95% CI)” value [1] was 0.79 (0.68; 0.91), the “PFS hazard ratio (HR) (95% CI)” value ([1]; listed as paclitaxel, carboplatin and anti-VEGF antibody) was 0.79 and the “All Deaths” value ([1]; number of patients (percent)) was 107 (14.3%). For the same substance, the “All Related Deaths” value ([1]; number of patients (percent)) was 5 (0.7%), the “Deaths not due to Progression” value ([1]; number of patients (percent)) was 19 (2.5%) and the “Pts w. Grade 3/4/5 AE” value ([1]; number of patients (percent)) was 479 (64.2%). The “Pts w. Serious AE” value ([1]; number of patients (percent)) was 279 (37.4%), the “Pts who Disc. Any Treatment” value ([1]; number of patients (percent)) was 293 (39.3%) and the “Pts who Disc. Any Treatment due to AE” value ([1]; number of patients (percent)) was 162 (21.7%). The PFS median ([1]; primary analysis of PFS) was 18.3 months and the “difference in median PFS” value ([1]; versus paclitaxel and carboplatin alone) was 2.3 months.

In the case of “bevacizumab plus chemotherapy: OCEANS: Avastin 15 mg/kg with carboplatin and gemcitabine, followed by Avastin alone until disease progression”, the “progression-free survival compared to chemotherapy alone” value ([2]; investigator assessed, modified RECIST, followed by bevacizumab alone until disease progression) is reported as “increased”.

In the case of “bevacizumab: recombinant humanized anti-VEGF monoclonal antibody; human IgG1 framework with CDRs from murine antibody A.4.6.1”, the “tolerability of the treatment regimen / adverse events” value [3] is reported as “generally well tolerated”, the “preliminary assessment of adverse events” value ([1]; in vivo) is reported as “consistent with previous studies” and the “safety findings / adverse events” value ([2]; in vivo) is reported as “No new safety findings were observed”. The response rate ([4]; NCI RECIST) was 21%, the “median PFS” value [4] was 4.7 months and the “progression-free for at least 6 months” value [4] was 40%. For the same substance, the “progression-free for at least 6 months” value [5] was 27% and the responses [5] was 16%.
